In US10172947B2, “Antiparasitic and/or antifungal composition comprising hydrophobised chitosan” (CENTRE NATIONAL DE LA RECHERCHE SCIENTIFIQUE (CNRS), priority 2013, dated 2019):
In brackets after ≈: the same amount, converted by molar mass. Blank lines part the entries; values can stand above or below the compound they belong to.

Key:
Format in all cases: cell-based
Trichomonas vaginalis = assay: Anti Trichomonas vaginalis activity, parasite count after 24 h; conditions: reference product, MTZ-sensitive strain ATCC PRA-98
Description: Trichomonas vaginalis is axenically cultivated at 35° C. in a trypticase-yeast extract-maltose medium (TYM) (Diamond L. S. et al., J. Parasitol., 1957, 43(4), 488-490) enriched with 10% of decomplemented horse serum (Gibco, France); the strain is subcultured every other day (Camuzat-Dedenis B. et al., Eur. J. Med. Chem., 2001, 36(10), 837-842).
The tubes of culture containing the fresh TYM medium enriched with 10% of horse serum alone (control 1, noted as C1) or those with the compositions tested, are inoculated with the parasite at a rate of 2×10^5 protozoa in 3 mL. The compositions tested are the compositions of PIBCA-[chitosan20/chitosan20-TBA] that have different proportions of chitosan and of thiolated chitosan, namely 100/0, 75/25, 50/50 and 25/75 m/m %. The concentrations in nanoparticles studied are 12.5, 25, 50 and 100 μg/mL.
The results are compared between (i) the nanoparticles of PIBCA/F68; (ii) the solutions comprised of mixtures of PIBCA-[chitosan20/chitosan20-TBA] having different proportions of chitosan and thiolated chitosan, namely 100/0, 75/25, 50/50 and 25/75 m/m %, (iii) the polymerisation medium (control 2, noted as C2). […]
The tubes are incubated for 24 h at 35° C. and the number of parasites per milliliter in each tube is determined microscopically with a haemocytometer (Kova® Glasstic® Slide 10, Hycor Biomedical, United States). […]

[1] = test system: Leishmania braziliensis axenic amastigotes; assay: In vitro evaluation on axenic amastigotes (resazurin); conditions: 72 h
Description: (§1) The compositions 5a (PIBCA-[chitosan20/chitosan20-TBA] 100/0 m/m %) and 4 (MC3+α-cyclodextrin 1/10% m/v), described in point 3 hereinabove, have been tested in vitro on three strains of Leishmania: Leishmania major (MHOM/SU/73/5-ASKH/LEM134), Leishmania tropica (LRC-L39/LEM2563), Leishmania braziliensis (MHOM/BR/75/M2903b). The IC50 were measured then compared to the reference product amphotericin B in order to determine the anti-leishmanial activity of the nanoparticles.
(§2) The culture of the axenic amastigotes was carried out at 37° C. in a complete M199 medium supplemented with 200 μM CaCl2 and 200 μM MgCl2.
(§3) Axenic amastigotes were induced by incubating promastigotes in complete M199 medium supplemented with 200 μM of CaCl2 and 200 μM MgCl2 at 37° C. with 5% CO2 for 48 h. Serial two-fold dilutions of the compositions were then carried out in 100 μl of the same medium in 96-well plates. The axenic amastigotes were then added in each well at 10^6/ml in 200 μl of final. volume After 72 h of incubation at 37° C. with 5% CO2, 20 μl of resazurin at 450 μM were added in each well, then incubated in the dark for 24 h at 37° C. with 5% CO2. In living cells, resazurin is reduced in resofurin. This conversion is monitored by measuring the absorbance at specific wavelengths of the resofurin (570 nm) and of the resazurin (600 nm) by using a microplate reader (Labsystem Multisken MS). The activity of the compositions is expressed in IC50. Amphotericin B is used as a reference product.

[2] = test system: Leishmania major axenic amastigotes; assay: as above; conditions: 72 h
Description: as §1, §2, §3

[3] = test system: Leishmania tropica axenic amastigotes; assay: as above; conditions: 72 h
Description: as §1, §2, §3

[4] = test system: Leishmania braziliensis intramacrophagic amastigotes; assay: In vitro evaluation on intramacrophagic amastigotes (RAW 264.7, Sybr Green); conditions: 48 h of treatment
Description: as §1
(§4) The macrophages RAW 264.7 were maintained at 37° C. with 5% CO2 in DMEM medium (Dulbecco's modified Eagle's medium, Gibco, Saint-Aubin, France) supplemented with 10% of foetal calf serum, inactivated by heat (Invitrogen, Saint-Aubin, France), also called complete DMEM medium.
(§5) The evaluation of the compositions 5a and 4 on intramacrophagic amastigotes was conducted as previously described (Audisio et al., Eur. J. Med. Chem., 2012, 52, 44-50). The macrophages RAW 264.7 were added in the wells of 96-well plates at a rate of 2×10^4 cells per well and incubated for 24 h at 37° C. with 5% CO2. The axenic amastigotes were then induced as described hereinabove, centrifuged at 2000 g for 10 minutes, then resuspended in a complete DMEM medium, and added to each well at a rate of 3.2×10^5 parasites per well, in order to reach a parasite/macrophage ratio of 16:1. After 24 h of infection at 37° C. with 5% CO2, the extracellular parasites were removed and 100 μl of complete DMEM medium containing the seried dilutions of the compositions were added to each well. After 48 h of treatment, the culture medium is removed, then replaced with 100 μl of DirectPCR Lysis reagent (Euromedex, Souffelweyersheim, France), and three freezing-thawing cycles at ambient temperature are then carried out, then 50 μg/ml of proteinase K are added, and a final incubation at 55° C. for 4 hours is carried out in order to allow for the complete lysis of the cells. […] The fluorescence of the DNA was measured using the Mastercycler® realplex (Eppendorf, Montesson, France). […]

[5] = test system: Leishmania major intramacrophagic amastigotes; assay: as above; conditions: 48 h of treatment
Description: as §1, §4, §5

[6] = test system: Leishmania tropica intramacrophagic amastigotes; assay: as above; conditions: 48 h of treatment
Description: as §1, §4, §5

[7] = test system: Leishmania braziliensis promastigotes; assay: In vitro evaluation on promastigotes (MTT); conditions: 72 h
Description: as §1
(§6) The promastigote culture was carried out at 26° C. in M199 medium (Sigma, Saint-Quentin Fallavier, France) supplemented with 4.2 mM NaHCO3, 10% of foetal calf serum inactivated by heat (Invitrogen, Saint-Aubin, France), 40 mM Hepes pH 7.5, 100 μM adenosine and 20 μM haemin (complete M199 medium).
(§7) The test of the compositions on prosmatigotes was conducted as previously described (Saint-Pierre-Chazalet et al., J. Antimicrob. Chemother., 2009, 64, 993-1001). Series of dilutions were carried out in 100 μl of complete M199 medium in a 96-well plate. Promastigotes in exponential growth were then added to each well at a rate of 10^6/ml in a final volume of 200 μl. After 72 h of incubation at 26° C., the viability of the promastigotes was measured by using 250 μg/ml of MTT, or 3-(4,5-dimethylthiazol-2-yl)-2,5-diphenyl tetrazolium bromide (Sigma, Saint-Quentin Fallavier, France), which is reduced in formazan, an insoluble product, by the active mitochondria of the living cells. After 4 h of incubation at 26° C., the formazan is then solubilised by adding 100 μl of isopropanol containing 40 mM of HCl in each well, then incubating for 15 minutes under stirring. The viability of the cells was then quantified by measuring the absorbance at 570 nm using a plate reader (Labsystems Multiskan MS). The activity of the compositions is expressed in IC50. Amphotericin B is used as a reference product.

[8] = test system: Leishmania major promastigotes; assay: In vitro evaluation on promastigotes (MTT); conditions: 72 h
Description: as §1, §6, §7

[9] = test system: Leishmania tropica promastigotes; assay: In vitro evaluation on promastigotes (MTT); conditions: 72 h
Description: as §1, §6, §7

Candida albicans = assay: Activity against Candida albicans, IC50 by microdilution with MTT viability test; conditions: 24 h at 35° C., molecule alone
Description: The inoculum is prepared by sampling 5 colonies obtained after 24 h of culture on Sabouraud agar medium, each one of at least 1 mm in diameter, and by putting them in suspension in 5 mL of sterile NaCl (0.85%). The turbidity of each suspension is evaluated by measuring the optical density at a wavelength of 530 nm then adjusted with a sterile isotonic solution so as to obtain an absorbance equivalent to that obtained with the turbidimetric standard (Mac Farland 0.5).
This protocol leads to the obtaining of a suspension of which the concentration is between 1×10^6 and 5×10^6 CFU/mL. […]
Measuring the growth of yeasts is carried out by a standard colorimetric technique that makes use of tetrazolium salt MTT (5 mg/mL) (3-(4,5-dimethylthiazol-2-yl)-2,5-diphenyl tetrazolium bromide) with menadione (vitamin K). […] The quantity of precipitate formed is proportional to the quantity of living cells and to the metabolic activity of each cell. It is sufficient therefore after the incubation of the cells with MTT for 1 h at 37° C., to add an agent solubilising the crystals of formazan, to centrifuge the 96-well plates, and to read the optical density of the supernatant. A simple dosage of the optical density at 570 nm by spectroscopy makes it possible to know the relative quantity of living cells. […]

SMILES: Cc1ncc([N+](=O)[O-])n1CCO [MTZ, metronidazole]
lethal concentration against Trichomonas vaginalis (Trichomonas vaginalis): 7 µg/mL

IC50 (ng/μl) ± SEM [1]: 0.055 ± 0.014 ng/µL (≈ 0.0595 µM)
IC50 (ng/μl) ± SEM [2]: 0.038 ± 0.002 ng/µL (≈ 0.0411 µM)
IC50 (ng/μl) ± SEM [3]: 0.049 ± 0.01 ng/µL (≈ 0.053 µM)
IC50 (ng/μl) ± SEM [4]: 0.29 ± 0.09 ng/µL (≈ 0.314 µM)
IC50 (ng/μl) ± SEM [5]: 0.49 ± 0.13 ng/µL (≈ 0.53 µM)
IC50 (ng/μl) ± SEM [6]: 0.51 ± 0.07 ng/µL (≈ 0.552 µM)
IC50 (ng/μl) ± SEM [7]: 0.022 ± 0.005 ng/µL (≈ 0.0238 µM)
IC50 (ng/μl) ± SEM [8]: 0.015 ± 0.004 ng/µL (≈ 0.0162 µM)
IC50 (ng/μl) ± SEM [9]: 0.023 ± 0.002 ng/µL (≈ 0.0249 µM)
SMILES: C[C@@H]1[C@H](O)[C@@H](C)/C=C/C=C/C=C/C=C/C=C/C=C/C=C/[C@H](O[C@@H]2O[C@H](C)[C@@H](O)[C@H](N)[C@@H]2O)C[C@@H]2O[C@](O)(C[C@@H](O)C[C@@H](O)[C@H](O)CC[C@@H](O)C[C@@H](O)CC(=O)O[C@H]1C)C[C@H](O)[C@H]2C(=O)O [Amphotericin B-DOC, Amphotericin B]

IC50 against Candida albicans (Candida albicans): 0.00068%
SMILES: N=C(NCCCCCCNC(=N)NC(=N)Nc1ccc(Cl)cc1)NC(=N)Nc1ccc(Cl)cc1.O=C(O)[C@H](O)[C@@H](O)[C@H](O)[C@H](O)CO.O=C(O)[C@H](O)[C@@H](O)[C@H](O)[C@H](O)CO [chlorhexidine digluconate]
